# Measurements published in the METLIN SMRT retention time set (Domingo-Almenara et al. 2019).
# Assay: gradient 5% acetonitrile 3 min, to 50% in 2 min, to 85% in 15 min, held 3 min, 100 µL/min
# Conditions: column: Zorbax Extend-C18 2.1 x 50 mm; eluents: water / acetonitrile, 0.1% formic acid
# Procedure, shortened: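 Over 3 months, pure standards in mixtures of ~100 molecules were run by HPLC coupled to a quadrupole time-of-flight mass spectrometer in positive and negative ionization mode. The column was a Zorbax Extend-C18 (2.1 × 50 mm, 1.8 μm) at 100 μL/min, eluted with water and acetonitrile each holding 0.1% formic acid, with 40 μL dead and 900 μL dwell volumes. Retention time was determined from adduct peaks chosen by software and checked manually.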
row,RP-LC retention time [s],SMILES
1,574,O=C(Nc1ccc(-c2nc3ccccc3[nH]2)cc1)c1ccccc1[N+](=O)[O-]
2,730,O=C(Cn1nc(-n2cccn2)ccc1=O)Nc1cc(C(F)(F)F)ccc1Cl
3,1100,COC(=O)c1cc(C)nc2c1c(=O)n(Cc1cccc(F)c1)c(=O)n2Cc1ccco1
4,1240,Cc1cc(C)cc(-c2nnc(Cc3nc(-c4cccc(Br)c4)no3)o2)c1
5,973,CCCS(=O)(=O)c1nc2ccc(NS(=O)(=O)c3ccc(F)c(F)c3)cc2s1
6,767,CS(=O)(=O)N1CCC(OC2CCN(C(=O)c3ccc(Cl)cc3)CC2)CC1
7,588,CCN1CCCC1CN(CC(=O)N1CCNCC1)S(=O)(=O)c1cc(C)c(C)cc1C (stereo unspecified)
8,1160,Cc1ccc(-n2ccnc(NC(=O)Nc3ccc(F)c(Cl)c3)c2=O)cc1C
9,1040,COc1ccc(Cl)cc1S(=O)(=O)c1cnc(N2CCC(C)CC2)nc1N
10,663,COc1ccc(C(=O)NC2CCN(c3cc(-c4ccccc4)[nH]n3)C2)cc1OC (stereo unspecified)
11,796,COc1cc(Cc2nc(-c3ccc4nnc(C)n4c3)no2)cc(OC)c1
12,1010,O=S(=O)(c1ccc2c(c1)CCC2)N1CCC2(CC1)CC(Cc1nc(-c3cnccn3)no1)CCO2 (stereo unspecified)
13,858,CCCn1cc(S(=O)(=O)Nc2ccc(F)cc2)c2cccnc21
14,696,CCOC(=O)c1c(C)[nH]c(C(=O)CC(=O)OC)c1C
15,599,Cc1noc(C)c1CC(=O)N1C[C@H]2C[C@H](C1)[C@H]1CCCC(=O)N1C2
16,622,C=CCNC(=O)CCc1c(-c2ccc(Br)cc2)nc2ccccn12
17,854,CCOC(=O)c1cn(Cc2ccc(F)cc2)c2nc(C)ccc2c1=O
18,653,COCC(=O)N1CCc2c(c(-c3nc(C4CC4)no3)nn2C)C1
19,610,COc1ccc(NC(=O)N2CCN(c3nc4ccccc4n3C)CC2)cc1OC
20,701,Cc1cccc2nc(-c3ccc(Cl)cc3)c(Nc3ccc4c(c3)OCCO4)n12
21,940,Cc1cc(C)n(Cc2nc(-c3ccc(NC(=O)c4ccsc4)cc3)oc2C)n1
22,600,O=C(Cn1c(-c2ccccc2F)nc2ccccc21)N1CCOCC1

row,RP-LC retention time [s],SMILES
1,887,Cc1ccc(C(=O)N2CCC(COc3ccc(C(=O)NC4CC4)cc3)CC2)cc1C
2,973,CC(C)n1c(=O)sc2cc(S(=O)(=O)N3CCC(C(=O)Nc4ccc(F)cc4)CC3)ccc21
3,804,COc1ccc2[nH]cc(CCNC(=O)C3CCCCC3)c2c1
4,593,COc1cccc(CNc2ccc3[nH]c(=O)[nH]c3c2)c1OC
5,969,CCn1cc(S(=O)(=O)N2CCN(c3ccccc3)CC2)c2cccnc21
6,622,NC(=O)C1CCN(C(=O)Cc2csc(NC(=O)Nc3ccccc3)n2)CC1
7,1240,CC(C)(C)c1cc(C(=O)NC2CCCCC2)nc2ccnn12
8,677,Cn1c(=O)c(N2CCN(S(=O)(=O)c3cccc(Cl)c3)CC2)nc2ccncc21
9,1110,CCOc1ccccc1CNC(=O)C1CCCN(c2nccnc2Sc2ccccc2)C1 (stereo unspecified)
10,606,CS(=O)(=O)N1CCN(C(=O)CCC2CCN(c3cc(NC4CC4)ncn3)CC2)CC1
11,726,Cc1ccc(NC(=O)N2CCC(c3nc(C(=O)N(C)C)c(C)o3)CC2)cc1C
12,618,O=C(CCC1CCCN(c2cc(NC3CC3)ncn2)C1)N1CCCN(c2ncccn2)CC1 (stereo unspecified)
13,735,COc1ccc(-c2nc(CN3CCCC3=O)no2)cc1
14,851,CCOC(=O)NC(=O)c1ccsc1NC(=O)c1ccc([N+](=O)[O-])s1
15,837,COc1cccc(CNC2=NCCNC23CCN(S(=O)(=O)c2ccc(C(C)(C)C)cc2)CC3)c1
16,765,CCOC(=O)C1CCN(C(=O)c2ccc3c(c2)CCCN3S(C)(=O)=O)CC1
17,974,c1ccc(-c2noc(NCc3ccc4c(c3)OCO4)n2)cc1
18,668,Cc1nnc2c(=O)n(CC(=O)NC3CCCCC3)c3cccnc3n12
19,1030,O=C1C2N=NN(Cc3nc(-c4ccc(Cl)cc4)no3)C2C(=O)N1c1ccc(F)cc1 (stereo unspecified)
20,879,CCc1nnc(-c2ccc3ccn(CC(=O)Nc4cc(F)ccc4F)c3c2)o1
21,822,COc1cccc(C(=O)N2CCCC(c3nnc(-c4ccccc4)o3)C2)c1 (stereo unspecified)
22,734,Cc1ccc(Nc2nc(C)cc(N3CCN(C(=O)C4CCCCC4)CC3)n2)cc1

row,RP-LC retention time [s],SMILES
1,831,CCCCn1nc2c(S(=O)(=O)N3CCCCC3)cccn2c1=O
2,781,CCC(=O)Nc1ccc(-n2cnc(C(=O)NC(C)c3ccc(C)cc3)c2)nc1 (stereo unspecified)
3,648,CCOC(=O)C1CCN(C(=O)CN2C(=O)COc3ccc(C(=O)N(C)C)cc32)CC1
4,866,O=C(CSc1nnc2c(=O)n(-c3ccc(Br)cc3)ccn12)c1ccccc1
5,760,O=S(=O)(c1ccccc1Cl)N1CC(F)(F)C[C@H]1CN1CCc2ccccc2C1
6,843,O=C(Nc1cccc(Br)c1)c1cc(-c2ccccn2)n[nH]1
7,680,CC1CCC(NC(=O)C2CCCN(c3cn[nH]c(=O)c3)C2)CC1 (stereo unspecified)
8,755,CNC(=O)c1cn2ccnc(-c3ccc(C)cc3)c2n1
9,635,Cc1nn2c(NC(=O)CSc3nnc4sc5ccccc5n34)csc2nc1=O
10,822,COCCn1cc2c3c(cccc31)CN(C(=O)NCc1ccc(OC)cc1)CC2
11,1160,CCCN1C(=O)COc2ccc(-c3noc(C(C)Oc4ccccc4)n3)cc21 (stereo unspecified)
12,633,COc1ccc(S(=O)(=O)N(C)CCCC(=O)O)cc1N(C)S(C)(=O)=O
13,718,Cc1cccc(S(=O)(=O)N2CCC(c3cc(=O)n4nccc4n3C)CC2)c1
14,1160,CCOc1cccc(-c2noc(Cc3nnc(-c4cccc(Br)c4)o3)n2)c1
15,863,O=C(c1cc2c(s1)CCCC2)N1CCCN(c2nnc3ccc(Cl)cn23)CC1
16,1070,C=CCN1C(=O)COc2ccc(-c3csc(NC(=O)c4cccc(Cl)c4)n3)cc21
17,802,O=S(=O)(c1ccc(Cl)c(-c2nnc(-c3ccccc3)o2)c1)N1CCN(c2ccccn2)CC1
18,836,O=C(C1CCN(S(=O)(=O)c2ccc(-c3noc(C4CCCCC4)n3)cc2)CC1)N1CCCC1
19,1020,CCOc1ccc(CCNc2nc(-c3ccc(OC)cc3)no2)cc1OCC
20,1030,Cc1cccc(Sc2nccnc2N2CCCC(C(=O)NCc3ccc4c(c3)OCO4)C2)c1 (stereo unspecified)
21,949,Cc1c(Cl)cccc1NC(=O)CCc1nc(CSc2nnc(-c3ccccc3)o2)no1

row,SMILES,RP-LC retention time [s]
1,CN(C)CCN(C)CCc1ccc(Cl)c(Cl)c1,639
